From patent US4296112A, “Cephalosporins” (Mitsui Toatsu Chemicals, Inc., priority 1979, dated 1981)
≈ marks a conversion by molar mass, not a printed value.

Tests used:
[1] = tested on: Staphylococcus aureus (FDA 209P); test: MIC, agar plate dilution (Referential Example 1, Table 1); type: cell-based; conditions: FDA209P, 18 h, read-out: Minimum growth inhibitory concentration (MIC)
Method: (§1) The antibacterial activities of the cephalosporins of this invention were measured using the sodium salts of the compounds obtained in Synthesis Examples 1 and 2. The procedure and the results are shown in Referential Example 1.
(§2) Carbenicillin sodium salt (CB-PC) and cephazoline sodum salt (CEZ) were used as controls.
(§3) The antibacterial activities of the test compounds against various Gram-positive and Gram-negative bacteria were determined in a customary manner by the minimum growth inhibitory concentration method (MIC method).
(§4) The experimental procedure was as follows:
(§5) A commercially available heart infusion agar medium (to be abbreviated HIA medium) was used as an assay medium, and a commercially available trypto-soy bouillon medium (to be abbreviated TSB) was used as a medium for the growth of test bacterial strains.
(§6) The test compound was diluted with the melted HIA medium to 100 μg/ml as a maximum concentration, and then serially diluted double. The dilutions were poured into sterilized Petri dishes respectively and allowed to cool and solidify to prepare plates containing the test compound.
(§7) The test bacterial strain was cultivated at 37° C. for 18 to 24 hours in the TSB medium. The culture broth was diluted to 50 to 500 times with a freshly prepared TSB culture medium, and one platinum loopful of the dilution was inoculated in each of the plates containing the test compound.

[2] = tested on: Klebsiella pneumoniae (Horino); test: as above; type: cell-based; conditions: HIA medium plate, 37° C., 18 hours, read-out: Minimum growth inhibitory concentration (MIC)
Method: as §1, §2, §3, §4, §5, §6, §7

[3] = tested on: Klebsiella pneumoniae (ATCC 10031); test: as above; type: cell-based; conditions: ATCC10031, 18 h, read-out: Minimum growth inhibitory concentration (MIC)
Method: as §1, §2, §3, §4, §5, §6, §7

[4] = tested on: Salmonella enteritidis (KB-21); test: as above; type: cell-based; conditions: Salmonella enterica, HIA medium plate, 37° C., 18 hours, read-out: Minimum growth inhibitory concentration (MIC)
Method: as §1, §2, §3, §4, §5, §6, §7

Escherichia coli (K-12) = test: as above; type: cell-based; conditions: 18 h, read-out: Minimum growth inhibitory concentration (MIC)
Method: as §1, §2, §3, §4, §5, §6, §7

[5] = tested on: Pseudomonas aeruginosa (S-1); test: as above; type: cell-based; conditions: HIA medium plate, 37° C., 18 hours, read-out: Minimum growth inhibitory concentration (MIC)
Method: as §1, §2, §3, §4, §5, §6, §7

[6] = Acute toxicity (LD50) in mice, intravenous (Experimental Example 2); conditions: mouse, in vivo; ICR male mice, intravenous (tail), two weeks observation; estimated; read-out: 50% lethal dose (LD50)
Method: Each of the compounds was administered intravenously to the tail of each mouse in a customary manner in a dose of 500 mg/kg and 1000 mg/kg, and over two weeks from then, the states of the mice were observed. It was consequently estimated that the LD50 values of each of these compounds was at least 1000 mg/kg.

Structure (SMILES)	MIC [1] [µg/mL]	MIC [2] [µg/mL]	MIC [3] [µg/mL]	MIC [4] [µg/mL]	MIC (Escherichia coli (K-12)) [µg/mL]	MIC [5] [µg/mL]	LD50 at 336 h [6] [mg/kg]
Cc1nnc(SCC2=C(C(=O)O)N3C(=O)C(NC(=O)[C@H](NC(=O)c4cnc5c(c4O)C(=O)CCC5)c4ccc(O)cc4)C3SC2)s1 (single isomer, unassigned) [Synthesis Example 2]	0.78 (≈ 1.14 µM)	1.56 (≈ 2.28 µM)	0.78 (≈ 1.14 µM)	0.2 (≈ 0.293 µM)	0.39 (≈ 0.571 µM)	1.56 (≈ 2.28 µM)	≥ 1000
CC(=O)OCC1=C(C(=O)O)N2C(=O)C(NC(=O)[C@H](NC(=O)c3cnc4c(c3O)C(=O)CCC4)c3ccc(O)cc3)C2SC1 (single isomer, unassigned) [Synthesis Example 1, 7-[D-(-)-α-(4-hydroxy-5-oxo-5,6,7,8-tetrahydroquinoline-3-carboxamide)-α-(4-hydroxyphenyl)acetamido]-3-acetoxymethyl-Δ^3-cephem-4-carboxylic acid]	1.56 (≈ 2.55 µM)	3.13 (≈ 5.13 µM)	1.56 (≈ 2.55 µM)	0.78 (≈ 1.28 µM)	1.56 (≈ 2.55 µM)	3.13 (≈ 5.13 µM)	≥ 1000
